# Source: patent US20030186869A1, “Polymer compositions comprising antifibrotic agents, and methods of treatment, pharmaceutical compositions, and methods of preparation therefor” (priority 1990, published 2003)
# Where two headings read alike, the source gives them in different places.
# What was measured:
# [1] = tested on: Smooth muscle cells; assay: Smooth muscle cell proliferation, cells counted daily; format: cell-based; conditions: six day period, compared to free cHyp and tHyp
# Excerpt: As can be noted with respect to FIGS. 6-9, the antifibrotic agents can be conjugated with PEG or another polymer and used to reduce cellular proliferation in the presence of collagen metabolism. In FIG. 6, the effect of free cHyp, polymeric cHyp and free trans-hydroxyproline were compared over a six day period. Smooth muscle cells were allowed to proliferate in the presence of free cHyp, polymeric cHyp and trans-hydroxyproline. The polymeric cHyp was produced as described above and contained ester linkages. On each day, the cells were trypsinized and counted with a hemocytometer. […] This is further supported by the data illustrated in FIG. 9, generated with fibroblast cells. […] See, e.g., FIG. 7, which presents a comparison of activity between the ester linked polymer and the amide linked polymer in FIG. 8.
# [2] = tested on: RFL-6 cells; assay: IC50 experiment, cytotoxicity / growth inhibition of RFL-6 rat fibroblast cells; format: cell-based; conditions: for factor by which cytotoxicity as PEG construct is reduced compared to the free amino acid: RFL-6 cells; for IC50: mean ± SD (n)
# Protocol: In this test two different synthesis batches of cis-hydroxyproline (CHOP) linked to PEG were tested, along with free CHOP. […] The differences between the two batches of CHOP-PEG are not significant.
# [3] = tested on: rats exposed to hypoxia (10% O2); assay: cHyp (free or in liposomes) in rats developing hypoxic pulmonary hypertension; format: in vivo, rat; conditions: for Hct / RVP / RV/(LV + S) / Protein: Hypoxia, day 3; for Protein: pulmonary artery
# Excerpt: Six week old male Sprague Dawley rats (Crl:CD[SD]BR) weighing 185-205 g and 8 week old female Swiss mice (Crl:CP-1[ICR]BR) weighing 30-32 g (Charles River Breading Laboratories, Wilmington, Mass.) were maintained in a holding area one week prior to study and were fed food and water ad libitum. Rats were randomly allocated to hypoxia or air groups; mice breathed air. Animals were kept in a 12-hour light-dark cycle.
# Four rats were placed in a polycarbonate chamber measuring 51×41×22 cm, and humidified gas (10% O2, 90% N2 flowed into the chamber at a rate of 400 ml/min. Gas samples were analyzed electrometrically (model MB53-MK2, Radiometer, Copenhagen, Denmark); PO2 ranged from 74-80 mmHg and PCO2 from 3-5 mmHg. Air-breathing rats were kept in cages in the same room and were pair-fed to hypoxic animals by weighing the food consumed by hypoxic animals and feeding the same amount of food to air-breathing animals to ensure similar final body weights. The chambers were opened once daily for 10 min. to clean, weigh and feed the animals.
# A catheter was placed in the right ventricle of anesthetized rats (50 mg/kg pentobarbital intraperitoneally), and mean right ventricular pressure was measured using a pressure transducer (model P23Db, Statham, Instruments, Oxnard, Calif.) and recorded (model SP-2006, Statham Instruments). Pressure was measured after the animal had breathed air for 20 min. to eliminate the tonic response to hypoxia. After sacrifice by abdominal aorta transection, hematocrit and ratio of ventricular weights were measured, and the position of the catheter was confirmed at autopsy.
# Main pulmonary artery (9 mm in length) was excised and analyzed for total protein and hydroxyproline contents as previously described. Tissue was hydrolyzed in 6N HCl at 118° C. for 48 hrs., diluted 1:10 in water, and a 0.1 ml aliquot was assayed for total protein by the ninhydrin method using leucine as standard and for hydroxyproline by a calorimetric method. Results of triplicate measurements were expressed as content per vessel.
# Cis-4-hydroxy-L-proline dissolved in saline (free cHyp) or saline alone were injected subcutaneously (0.5 ml) or intravenously. Intravenous injections were performed in anesthetized animals (25 mg/kg thiopental, intraperitoneally). In rats, liposomes containing cHyp or empty liposomes were injected intravenously (18 μmol phospholipid in […]) via the dorsal vein of the penis over 5 sec using a 30 gauge needle. In mice, liposomes (18 μmol phospholipid in 0.5 ml) were injected into the tail vein.
# Four modes of delivery of cHyp were used in rats. Free cHyp (200 or 100 mg/kg) was injected subcutaneously twice daily during exposure to hypoxia. A single dose of free cHyp (200 mg/kg) was given intravenously prior to exposure to hypoxia. Single doses of cHyp entrapped in liposomes (200 or 100 mg/kg) were injected intravenously prior to exposure to hypoxia. Multiple doses of cHyp in liposomes (200 mg/kg) were injected intravenously prior to hypoxia and every 5 days during exposure to hypoxia. Single doses of cHyp entrapped in liposomes after reticuloendothelial blockage were produced by intravenous injection of a single dose of empty liposomes followed 30 minutes later by a single intravenous dose of cHyp entrapped in liposomes (100 or 50 mg/kg) prior to exposure to hypoxia. The purpose was to enhance the localization of liposomes containing cHyp to the lungs by prior treatment with empty liposomes as temporary reticuloendothelial blocking agents.
# In each animal, we assessed the effect of injection of cHyp on five parameters of exposure to hypoxia: mean right ventricular pressure (RVP) measured after the animal had been removed from the hypoxic environment, ratio of ventricular weights (RV/[LV+S]), hematocrit, and the contents of hydroxyproline and protein in the pulmonary artery. For each experimental group, comparisons were made to a group exposed to hypoxia and injected with a control substance and to a group exposed to air. […]
# [4] = tested on: air-breathing rats; assay: cHyp in air-breathing rats, parameters of exposure to hypoxia; format: in vivo, rat; conditions: for Hct / RV/(LV + S) / RVP / Protein: Air, day 3; for Protein: pulmonary artery
# Excerpt: In each animal, we assessed the effect of injection of cHyp on five parameters of exposure to hypoxia: mean right ventricular pressure (RVP) measured after the animal had been removed from the hypoxic environment, ratio of ventricular weights (RV/[LV+S]), hematocrit, and the contents of hydroxyproline and protein in the pulmonary artery. For each experimental group, comparisons were made to a group exposed to hypoxia and injected with a control substance and to a group exposed to air. For free cHyp, the control substance was saline; for cHyp entrapped in liposomes, the control substance was empty liposomes. Groups were age-matched; the air group was weight-matched to the hypoxic group injected with the control substance. Average results of each parameter were compared.
# The sixth protocol studied whether cHyp injected in air breathing rats affected any of the parameters of exposure to hypoxia. Air groups were given free cHyp 200 or 100 mg/kg subcutaneously twice daily for 3 days (Groups 13 and 14) and were compared to saline injected animals. A group was injected with 200 mg/kg of cHyp in liposomes every 5 days during a 21-day exposure to air (Group 15), and results were compared to a group injected with empty liposomes every 5 days during a 21-day exposure to air.
# [5] = Hydrolytic stability of dual-labeled conjugate in pH buffers (GPC, scintillation counting); format: physicochemical; conditions: six day period
# Protocol: Buffers at various pH levels were prepared according to the method described in Davies, The Analyst, 1959, 4:248-251, with final ionic strengths of approximately 0.15 mol./L. Incubation samples were prepared by dissolving the dual-labeled conjugate in the appropriate medium to obtain a 50 mg/mL concentration and immediately syringe filtering through 0.45 μm nylon filters. Aliquots (25-30 μL) at specified time points were removed for GPC analysis-fractionation. Release rates were determined by monitoring cleavage of the radiolabeled [^3H]-cHyp from the radiolabeled [^14C] polymeric backbone. Separation of the relatively high molecular weight backbone from the low molecular weight drug was readily achieved via gel permeation chromatography, which is a size separation technique, followed by scintillation counting of the collected fractions. This necessitated using radiolabeled-conjugate concentrations of 50 mg/mL, i.e., 1 mg of conjugate injected per run, resulting in appropriate molecular weight analysis and specific activity determinations for the collected fractions. […]
# The polymeric conjugate consists of two distinctly different parts: (a) the polymeric backbone [poly(PEG-Lys)]; and (b) the pendent chain which consists of the drug molecule and its linking bond (cHyp). […] The hydrolytic stability of the polymeric conjugate was monitored over a six day period. The stability of the bonds present in the polymeric conjugate (ether, amide and urethane) was evaluated by incubation of the dual-labeled polymeric conjugate at the specified pH. Aliquot removal at specified time intervals, followed by GPC analysis with fractionation, permitted the quantitative monitoring of both carrier stability (molecular weight profile) and drug release (determination of [^3H]/[^14C] ratio by scintillation counting), as is shown in FIG. 12. In the pH range from 0 to 12, no change in either molecular weight, polydispersity or the [^3H] to [^14C] ratio could be detected throughout the test period.
# [6] = Serum release study in fetal calf serum; format: in vitro ADME, bovine; conditions: six day incubation in FCS at 37° C.
# Protocol: Buffers at various pH levels were prepared according to the method described in Davies, The Analyst, 1959, 4:248-251, with final ionic strengths of approximately 0.15 mol./L. Incubation samples were prepared by dissolving the dual-labeled conjugate in the appropriate medium to obtain a 50 mg/mL concentration and immediately syringe filtering through 0.45 μm nylon filters. Aliquots (25-30 μL) at specified time points were removed for GPC analysis-fractionation. Release rates were determined by monitoring cleavage of the radiolabeled [^3H]-cHyp from the radiolabeled [^14C] polymeric backbone. Separation of the relatively high molecular weight backbone from the low molecular weight drug was readily achieved via gel permeation chromatography, which is a size separation technique, followed by scintillation counting of the collected fractions. This necessitated using radiolabeled-conjugate concentrations of 50 mg/mL, i.e., 1 mg of conjugate injected per run, resulting in appropriate molecular weight analysis and specific activity determinations for the collected fractions. The serum release studies were conducted in 100% heat inactivated fetal calf serum (ΔFCS) at 37° C. at a concentration of 50 mg/mL of conjugate to ΔFCS, over a six day period.
# [7] = Rattus norvegicus, RFL-6, free amino acid, read-out: IC50, Free AA
# [8] = 100 mg/kg subcutaneously for 3 days
molecule,measurement,setting,value
Poly(PEG-Lys-cis-Hyp) Copolymer [amide linked polymer],Cellular proliferation,[1],further reduced
Poly(PEG-Lys-cis-Hyp) Copolymer [polymeric cHyp],Cellular proliferation,[1],significantly reduced
"O=C(O)[C@@H]1CCN1 [ACA, (S)-(−)-2-azetidinecarboxylic acid]",factor by which cytotoxicity as PEG construct is reduced compared to the free amino acid,[2],4 ×
same,IC50,[2]; [7],1700 ± 1800 µM
"O=C(O)C1C=CCN1 (racemic) [DHP, 3,4-dehydro-DL-proline]",factor by which cytotoxicity as PEG construct is reduced compared to the free amino acid,[2],8 ×
same,IC50,[2]; [7],700 ± 300 µM
"O=C(O)[C@@H]1C[C@H](O)CN1 (stereo in doubt) [cHyp, cis-4-hydroxy-L-proline]",hematocrit,[3]; [8],partial decrease
same,"increased RVP, RV/(LV+S) or hydroxyproline or protein contents",[3]; [8],did not prevent
same,pulmonary hypertension,[3]; 200 mg/kg subcutaneously twice daily for 3 days,partially prevented
same,Hct,[3]; 100 mg/kg sq bid × 3 days,51 ± 1 %
same,RVP,[3]; 100 mg/kg sq bid × 3 days,14 ± 1 mmHg
same,Hct,[3]; 200 mg/kg iv × 1 injection,55 ± 1 %
same,RV/(LV + S),[3]; 200 mg/kg iv × 1 injection,0.32 ± 0.01 %
same,RVP,[3]; 200 mg/kg iv × 1 injection,14 ± 1 mmHg
same,Hct,[3]; 200 mg/kg sq bid × 3 days,51 ± 1 %
same,RV/(LV + S),[3]; 200 mg/kg sq bid × 3 days,0.25 ± 0.01 %
same,RVP,[3]; 200 mg/kg sq bid × 3 days,10 ± 1 mmHg
same,minimal total dose required to prevent hypoxic pulmonary hypertension,"[3]; at 5 days, subcutaneous (200 mg/kg twice daily)",2000 mg/kg
same,effect on any parameter,[3]; injected intravenously prior to hypoxic exposure,no effect
same,Protein,[3]; 100 mg/kg sq bid × 3 days,2.3 ± 0.3 mg/vessel
same,Protein,[3]; 200 mg/kg iv × 1 injection,2.3 ± 0.3 mg/vessel
same,Protein,[3]; 200 mg/kg sq bid × 3 days,1.4 ± 0.1 mg/vessel
same,Hct,[4]; 100 mg/kg sq bid × 3 days,47 ± 1%
same,RV/(LV + S),[4]; 100 mg/kg sq bid × 3 days,0.25 ± 0.01%
same,RVP,[4]; 100 mg/kg sq bid × 3 days,9 ± 1 mmHg
same,Hct,[4]; 200 mg/kg sq bid × 3 days,46 ± 1%
same,RV/(LV + S),[4]; 200 mg/kg sq bid × 3 days,0.24 ± 0.01%
same,RVP,[4]; 200 mg/kg sq bid × 3 days,9 ± 1 mmHg
same,effect on any of the measured parameters,"[4]; air, 200 mg/kg or 100 mg/kg twice daily subcutaneously for 3 days",no effect
same,Protein,[4]; 100 mg/kg sq bid × 3 days,1.2 ± 0.1 mg/vessel
same,Protein,[4]; 200 mg/kg sq bid × 3 days,1.2 ± 0.1 mg/vessel
same,IC50,[2]; [7],8800 ± 5100 µM
"O=C(O)[C@@H]1CSCN1 [THP, (R)-(−)-2-thiazolidine-4-carboxylic acid]",factor by which cytotoxicity as PEG construct is reduced compared to the free amino acid,[2],12 ×
same,IC50,[2]; [7],700 ± 100 µM
"NCCCC[C@H](N)C(=O)N1C[C@@H](O)C[C@H]1C(=O)O (relative stereo) [CHOP-Lys, L-lysine-cis-4-hydroxy-L-proline dipeptide]",IC50,"[2]; lysyl dipeptide, read-out: IC50, AA-Lys",7000 µM
poly(PEG-[^14C]Lys-[^3H]cHyp) [dual-labeled polymeric conjugate],change in [3H]/[14C] ratios (amide stability),"[5]; pH 14, 25° C.",relatively no change
same,polymer backbone stability,"[5]; pH 14, 25° C.",Massive backbone degradation
same,"change in molecular weight, polydispersity or [3H] to [14C] ratio","[5]; pH range from 0 to 12, 25° C.",no change
same,cleavage of [3H]cHyp from the carrier,[6],did not occur to any appreciable extent
same,polymer backbone stability,[6],completely maintained
